Assays:
CRTH2 receptor [1] = molecular target: T1, CRTH2 receptor (Homo sapiens, UniProt Q9Y5Y4); assay: Functional assay: calcium mobilisation; type: cell-based; design: expressed in transfected cells; details: CHO-K1 cells co-expressing CRTH2 receptor and Gα16; antagonism of PGD2 at its EC80
T1 sequence (Q9Y5Y4 1-395): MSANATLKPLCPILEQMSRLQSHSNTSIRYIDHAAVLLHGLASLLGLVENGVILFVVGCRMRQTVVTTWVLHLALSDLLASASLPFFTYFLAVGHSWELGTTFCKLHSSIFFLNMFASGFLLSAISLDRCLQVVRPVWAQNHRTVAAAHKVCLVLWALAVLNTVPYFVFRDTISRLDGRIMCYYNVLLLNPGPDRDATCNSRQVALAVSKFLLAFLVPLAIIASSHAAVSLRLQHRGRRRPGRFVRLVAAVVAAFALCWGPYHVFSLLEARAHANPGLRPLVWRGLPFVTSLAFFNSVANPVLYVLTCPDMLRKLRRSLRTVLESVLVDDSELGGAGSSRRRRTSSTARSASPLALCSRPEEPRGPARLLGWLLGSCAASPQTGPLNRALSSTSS
Description: Functional Assay: Calcium Mobilisation
Stable CHO-K1 cells co-expressing the CRTH2 receptor and the G-protein Gα16 are seeded (40,000 cells per well in a plating volume of 75 μL in F-12 Hams supplemented with 1% foetal bovine serum) into collagen-coated 96-well, plates 24 hours prior to the assay. The cells are then loaded with a fluorescence-imaging plate reader (FLIPR) calcium kit dye (Calcium 3 kit, Molecular Devices Ltd) containing 5 mM final concentration of probenecid and incubated at 37° C. for 1 hour in a 5% CO2 atmosphere. The fluorescence emission caused by intracellular calcium mobilization elicited by the PGD2 at the CRTH2 receptor is determined with a FLEXstation benchtop scanning and integrated fluid transfer workstation (Molecular Devices Ltd). To detect antagonists and determine compound IC50, compounds are pre-incubated at varying concentrations with the loaded cells for 15 minutes at 37° C., 5% CO2, prior to the addition of the agonist at its EC80 value. Compounds and agonist are added in Hanks balanced salt solution containing 20 mM HEPES and 0.1% BSA). The fractional response values for each well are calculated by subtracting the basal response from the peak response. Results are calculated as the mean of triplicate wells using Excel and XLfit (Microsoft).

CRTH2 receptor [2] = molecular target: T1, CRTH2 receptor; assay: Radioligand binding assay ([3H]-PGD2 displacement, SPA); design: expressed in transfected cells; host or cells: HEK cell membranes; details: HEK cell membranes expressing the CRTH2 receptor, 1 nM [3H]-PGD2; Ki from IC50 by Cheng-Prusoff
Description: Radioligand Binding Assay
The receptor binding assay is performed in a final volume of 200 μL binding buffer [10 mM BES (pH 7.4), 1 mM EDTA, 10 mM manganese chloride, 0.01% BSA] and 1 nM [^3H]-PGD2 (Amersham Biosciences UK Ltd). Ligands are added in assay buffer containing a constant amount of DMSO (1% by volume). Total binding is determined using 1% by volume of DMSO in assay buffer and non-specific binding is determined using 10 μM of unlabeled PGD2 (Sigma). Human embryonic kidney (HEK) cell membranes (3.5 μg) expressing the CRTH2 receptor are incubated with 1.5 mg wheatgerm agglutinin SPA beads and 1 nM [^3H]-PGD2 (Amersham Biosciences UK Ltd) and the mixture incubated for 3 hours at room temperature. Bound [^3H]-PGD2 is detected using a Microbeta TRILUX liquid scintillation counter (Perkin Elmer). Compound IC50 value is determined using a 6-point dose response curve in duplicate with a semi-log compound dilution series. IC50 calculations are performed using Excel and XLfit (Microsoft), and this value is used to determine a Ki value for the test compound using the Cheng-Prusoff equation.

## Cc1nc2c(Cl)ccc(CC(=O)O)c2c(C)c1Sc1ccc(Cl)cc1 [Example 12, [8-chloro-3-(4-chlorophenylsulfanyl)-2,4-dimethylquinolin-5-yl]acetic Acid]
CRTH2 receptor [1]
  IC50: < 100 nM
CRTH2 receptor [2]
  Ki: < 100 nM

## Cc1nc2c(Cl)ccc(OCC(=O)O)c2c(OC(F)F)c1Cc1ccc(F)cc1 [Example 18, [8-chloro-4-difluoromethoxy-3-(4-fluorobenzyl)-2-methylquinolin-5-yloxy]acetic acid]
CRTH2 receptor [1]
  IC50: < 100 nM
CRTH2 receptor [2]
  Ki: < 100 nM

## Cc1nc2c(Cl)ccc(OCC(=O)O)c2c(C)c1Cc1ccc(S(C)(=O)=O)cc1 [Example 20, [8-chloro-3-(4-methanesulfonylbenzyl)-2,4-dimethylquinolin-5-yloxy]acetic Acid]
CRTH2 receptor [1]
  IC50: < 1000 nM
CRTH2 receptor [2]
  Ki: < 100 nM

## Cc1nc2c(Cl)ccc(-c3nnn[nH]3)c2c(C)c1Cc1ccc(Cl)cc1 [Example 42, 8-chloro-3-(4-chlorobenzyl)-2,4-dimethyl-5-(1H-tetrazol-5-yl)quinoline]
CRTH2 receptor [1]
  IC50: < 1000 nM
CRTH2 receptor [2]
  Ki: < 10000 nM

## Cc1c(Cc2ccc(Cl)cc2)c(OC(F)F)nc2c(Cl)ccc(OC(C)C(=O)O)c12 (stereo not shown) [Example 69, 2-[8-chloro-3-(4-chlorobenzyl)-2-difluoromethoxy-4-methylquinolin-5-yloxy]propionic Acid]
CRTH2 receptor [2]
  Ki: < 100 nM

## Cc1c(Cc2ccc(Cl)cc2Cl)c(OC(F)F)nc2c(F)ccc(O[C@H](C)C(=O)O)c12 [Example 70, (R)-2-[3-(2,4-dichlorobenzyl)-2-difluoromethoxy-8-fluoro-4-methylquinolin-5-yloxy]propionic Acid]
CRTH2 receptor [2]
  Ki: < 100 nM

## CCc1nc2c(Cl)ccc(OCC(=O)O)c2c(OC(F)F)c1Cc1ccc(C(=O)N2CCCC2)cc1 [Example 71, {8-chloro-4-difluoromethoxy-2-ethyl-3-[4-(pyrrolidine-1-carbonyl)benzyl]quinolin-5-yloxy}acetic Acid]
CRTH2 receptor [2]
  Ki: < 100 nM

## CCc1nc2c(F)ccc(OCC(=O)O)c2c(OC(F)F)c1Cc1ccc(C(=O)N2CCCC2)cc1Cl [Example 72, {3-[2-chloro-4-(pyrrolidine-1-carbonyl)benzyl]-4-difluoromethoxy-2-ethyl-8-fluoroquinolin-5-yloxy}acetic Acid]
CRTH2 receptor [2]
  Ki: < 100 nM

## CCc1nc2c(F)ccc(O[C@@H](C)C(=O)O)c2c(OC(F)F)c1Cc1ccc(C(=O)N2CCCC2)cc1Cl [Example 73, (S)-2-{3-[2-chloro-4-(pyrrolidine-1-carbonyl)benzyl]-4-difluoromethoxy-2-ethyl-8-fluoroquinolin-5-yloxy}propionic Acid]
CRTH2 receptor [2]
  Ki: < 100 nM

## CCc1nc2c(F)ccc(O[C@@H](C)C(=O)O)c2c(OC(F)F)c1Cc1ccc(Cl)cc1Cl [Example 74, (S)-2-[3-(2,4-dichlorobenzyl)-4-difluoromethoxy-2-ethyl-8-fluoroquinolin-5-yloxy]propionic Acid]
CRTH2 receptor [2]
  Ki: < 100 nM

## CCc1nc2c(F)ccc(O[C@@H](C)C(=O)O)c2c(OC)c1Cc1ccc(Cl)cc1Cl [Example 75, (S)-2-[3-(2,4-dichlorobenzyl)-2-ethyl-8-fluoro-4-methoxyquinolin-5-yloxy]propionic Acid]
CRTH2 receptor [2]
  Ki: < 100 nM

## CCc1nc2c(F)ccc(OCC(=O)O)c2c(OC(F)F)c1Cc1ccc(C(=O)NC2CCC2)cc1Cl [Example 76, [3-(2-chloro-4-cyclobutylcarbamoylbenzyl)-4-difluoromethoxy-2-ethyl-8-fluoroquinolin-5-yloxy]acetic Acid]
CRTH2 receptor [2]
  Ki: < 100 nM

## CCc1nc2c(F)ccc(O[C@@H](C)C(=O)O)c2c(OC(F)F)c1Cc1ccc(C(=O)NC2CCC2)cc1Cl [Example 77, (S)-2-[3-(2-chloro-4-cyclobutylcarbamoylbenzyl)-4-difluoromethoxy-2-ethyl-8-fluoroquinolin-5-yloxy]propionic acid]
CRTH2 receptor [2]
  Ki: < 100 nM

## Cc1cc(OCC(=O)O)c2c(C)c(Cc3ccc(Cl)cc3)cnc2c1 [Example 78, [3-(4-chlorobenzyl)-4,7-dimethylquinolin-5-yloxy]acetic Acid]
CRTH2 receptor [2]
  Ki: < 10000 nM

## Cc1nc2cccc(OCC(=O)O)c2cc1Cc1ccc(Cl)cc1 [Example 79, [3-(4-chlorobenzyl)-2-methylquinolin-5-yloxy]acetic Acid]
CRTH2 receptor [2]
  Ki: < 10000 nM
